Measurements published in US11807627B2, “Morphic forms of complement factor D inhibitors” (priority 2018, dated 2023).

How the values were obtained:
Assay type in all cases: physicochemical
Milling of Form A = settings: 2 min milling (5000 RPM); initial and repeat runs
Experimental: Compound 3 Form A material was milled using a Precellys® Evolution SUPER Homogenizer. Approximately 50 mg of Compound 3 Form A was weighed into 2×plastic 2 mL bead mill vials and 5×2.4 […] metal beads were placed into each vial. Sample 1 was milled using the following: RPM=5000; Cycles=2×60 seconds; Pause=10 seconds (between cycles). Sample 2 was milled using the above method but 5×60 seconds cycles instead of2×60 seconds. After milling, a sub-sample was taken from each and analyzed by XRPD and PLM. The above procedure was repeated and the resulting samples were analyzed by XRPD and DSC analysis.

[1] = Polymorph study: anti-solvent addition
Experimental: Anti-solvent additions were completed on saturated solutions of Compound 3 produced from temperature cycling experiments. Precipitation of solids was observed (before anti-solvent additions were completed) from selected solvent systems when storage under ambient conditions. Precipitated solids were analyzed by XRPD and re-dissolved using gentle heating and addition of minimal solvent. An appropriate anti-solvent was added to each saturated solution in 50μL aliquots until precipitation was observed or a total of 1 mL anti-solvent had been added. Samples where solids were precipitated were isolated using centrifuge filtration and analyzed by XRPD. […] Samples where solids had precipitated were isolated using centrifuge filtration and analyzed by XRPD (Table 20A and Table 20B).

[2] = Solvent experiments (solubility, Example 3)
[3] = Polymorph study: evaporation
Experimental: Saturated solutions of Compound 3 produced from temperature cycling experiments were evaporated under ambient conditions. After approximately 4 days, observations were made, and solids recovered were analyzed by XRPD (Table 21).

[4] = 50% 2-Propanol / 50% Heptane (% v/v)
[5] = 70% 2-Propanol / 30% Heptane (% v/v)
[6] = 70% 2-Propanol / 30% Water (% v/v) aw = 0.8
[7] = 95% Heptane / 5% 2-Propanol (% v/v)
[8] = 95% Methanol / 5% Water (% v/v) calc. aw = 0.2

CC(=O)c1nn(CC(=O)N2[C@H](C(=O)Nc3nc(Br)ccc3C)C[C@@]3(C)C[C@@H]23)c2ccc(-c3cnc(C)nc3)cc12 [Compound 3 Form A]
Amorphous: Milling: XRPD (Milling of Form A)

CC(=O)c1nn(CC(=O)N2[C@H](C(=O)Nc3nc(Br)ccc3C)C[C@@]3(C)C[C@@H]23)c2ccc(-c3cnc(C)nc3)cc12 [Compound 3, (1R,3S,5R)-2-(2-(3-acetyl-5-(2-methylpyrimidin-5-yl)-1H-indazol-1-yl)acetyl)-N-(6-bromo-3-methylpyridin-2-yl)-5-methyl-2-azabicyclo[3.1.0]hexane-3-carboxamide]
Form A: XRPD analysis after re- dissolution and storage at 4° C. for ca. 48 hours ([1]; 2-Propanol) | XRPD analysis after re- dissolution and storage at 4° C. for ca. 48 hours ([1]; 50% Ethanol:50% Heptane (% v/v)) | XRPD analysis after re- dissolution and storage at 4° C. for ca. 48 hours ([1]; 95% 2-Propanol / 5% Heptane (% v/v)) | XRPD analysis after re- dissolution and storage at 4° C. for ca. 48 hours ([1]; Acetone) | XRPD analysis after re- dissolution and storage at 4° C. for ca. 48 hours ([1]; Ethanol) | Crystallization technique: Anti-solvent Additions ([1]; Methylethyl Ketone) | Crystallization technique: Anti-solvent Additions ([1]; Tetrahydrofuran)
WC Form A: XRPD analysis after re- dissolution and storage at 4° C. for ca. 48 hours ([1]; 1-Butanol, WC = weakly crystalline)
Clear solution: Observation after re-dissolution and anti-solvent addition [1, 4] | Observations after storage in the fridge for ca. 48 hours [1, 4] | Observation after re-dissolution and anti-solvent addition [1, 5] | Observations after storage in the fridge for ca. 48 hours [1, 5] | Observations after storage in the fridge for ca. 48 hours ([1]; 70% 2-Propanol / 30% Heptane (% v/v) re-prepared sample) | Crystallization technique: Anti-solvent Additions [1, 6] | Observations after storage in the fridge for ca. 48 hours [1, 6] | Observations after storage in the fridge for ca. 48 hours [1, 7] | Crystallization technique: Anti-solvent Additions [1, 8] | Observations after storage in the fridge for ca. 48 hours ([1]; 95% Methanol:5% Water (% v/v) calc. aw = 0.2) | Observations after storage in the fridge for ca. 48 hours ([1]; Acetonitrile) | Crystallization technique: Anti-solvent Additions ([1]; Methanol) | Observations after storage in the fridge for ca. 48 hours ([1]; Methanol) | Crystallization technique: Anti-solvent Additions ([1]; n-Heptane)
865 µg/mL: solubility ([2]; heptane, organic solvent or mixture)
104000 µg/mL: solubility ([2]; DMSO, organic solvent or mixture)
Form A (WC) *: Crystallization technique: Anti-solvent Additions ([1]; 1-Butanol, *solids that precipitated under ambient conditions, WC = weakly crystalline) | Crystallization technique: Anti-solvent Additions ([1]; 50% 2-Propanol / 50% Heptane (% v/v), *solids that precipitated under ambient conditions, WC = weakly crystalline)
1040 µg/mL: solubility ([2]; UPLC Water)
WC (Pattern E): Crystallization technique: Evaporations ([3]; tert-Butylmethyl Ether, WC = weakly crystalline)
Form A*: Crystallization technique: Anti-solvent Additions ([1]; 2-Propanol, *solids that precipitated under ambient conditions) | Crystallization technique: Anti-solvent Additions ([1]; 50% Ethanol / 50% Heptane (% v/v), *solids that precipitated under ambient conditions) | Crystallization technique: Anti-solvent Additions ([1]; 95% 2-Propanol / 5% Heptane (% v/v), *solids that precipitated under ambient conditions) | Crystallization technique: Anti-solvent Additions ([1]; Acetone, *solids that precipitated under ambient conditions) | Crystallization technique: Anti-solvent Additions ([1]; Ethanol, *solids that precipitated under ambient conditions) | Crystallization technique: Anti-solvent Additions ([1]; Ethyl Acetate (dry), *solids that precipitated under ambient conditions)
34300 µg/mL: solubility ([2]; acetone, organic solvent or mixture)
White solid: Observations after storage in the fridge for ca. 48 hours ([1]; Ethyl Acetate (dry))
Mixture L + M*: Crystallization technique: Anti-solvent Additions ([1]; 40% Ethanol / 60% Water (% v/v) calc. aw = 0.7, *solids that precipitated under ambient conditions) | Crystallization technique: Anti-solvent Additions ([1]; 70% 2-Propanol / 30% Heptane (% v/v), *solids that precipitated under ambient conditions)
Amorphous: XRPD analysis after re- dissolution and storage at 4° C. for ca. 48 hours ([1]; Ethyl Acetate (dry)) | Crystallization technique: Anti-solvent Additions ([1]; Toluene) | Crystallization technique: Evaporations ([3]; 1-Butanol) | Crystallization technique: Evaporations ([3]; 2-Propanol) | Crystallization technique: Evaporations ([3]; 40% Ethanol / 60% Water (% v/v) calc. aw = 0.7) | Crystallization technique: Evaporations [3, 4] | Crystallization technique: Evaporations ([3]; 50% Acetonitrile / 50% Water (% v/v) calc. aw = 0.9) | Crystallization technique: Evaporations ([3]; 50% Ethanol / 50% Heptane (% v/v)) | Crystallization technique: Evaporations [3, 6] | Crystallization technique: Evaporations [3, 7] | Crystallization technique: Evaporations [3, 8] | Crystallization technique: Evaporations ([3]; Acetonitrile) | Crystallization technique: Evaporations ([3]; Ethyl Acetate (dry)) | Crystallization technique: Evaporations ([3]; Methanol) | Crystallization technique: Evaporations ([3]; Methylethyl Ketone) | Crystallization technique: Evaporations ([3]; Methylisobutyl Ketone) | Crystallization technique: Evaporations ([3]; Toluene) | Crystallization technique: Evaporations ([3]; n-Heptane)
Form B: Crystallization technique: Anti-solvent Additions ([1]; Methylisobutyl Ketone)
8380 µg/mL: solubility ([2]; ethanol, organic solvent or mixture)
Form A (WC): Crystallization technique: Evaporations ([3]; 2-Methyl Tetrahydrofuran, WC = weakly crystalline) | Crystallization technique: Evaporations ([3]; 95% 2-Propanol / 5% Heptane (% v/v), WC = weakly crystalline) | Crystallization technique: Evaporations ([3]; Acetone, WC = weakly crystalline) | Crystallization technique: Evaporations ([3]; Ethanol, WC = weakly crystalline)
